Laboratory results reported in PubChem BioAssay (NCI).
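Growth conditions: 96-well plates. Treatment: test compound, 48 hours, 5 concentrations. Analysis: linear interpolation between bracketing concentrations; unreached endpoints set to highest concentration. TGI: total growth inhibition.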

Experiments:
Test in all cases: NCI-60 cell line screen, 48 h
[1] = system: U251 CNS
[2] = system: HL-60(TB) leukemia
[3] = system: OVCAR-5 ovarian
[4] = system: MDA-MB-231 breast
[5] = system: M14 melanoma
[6] = system: A498 renal
[7] = system: HCT-15 colon
[8] = system: MCF7 breast
[9] = system: LOX IMVI melanoma
[10] = system: SF-268 CNS
[11] = system: MDA-MB-435
[12] = system: A549 NSCLC
[13] = system: SK-OV-3 ovarian
[14] = system: HOP-62 NSCLC
[15] = system: SF-539 CNS
[16] = system: ACHN renal
[17] = system: K-562 leukemia
[18] = system: EKVX NSCLC
[19] = system: MDA-N
[20] = system: BT-549 breast
[21] = system: MOLT-4 leukemia
[22] = system: COLO 205 colon
[23] = system: SNB-19 CNS
[24] = system: SK-MEL-2 melanoma
[25] = system: NCI/ADR-RES ovarian
[26] = system: HOP-92 NSCLC
[27] = system: SK-MEL-5 melanoma
[28] = system: OVCAR-8 ovarian
[29] = system: NCI-H226 lung
[30] = system: DU-145 prostate
[31] = system: CCRF-CEM leukemia
[32] = system: RPMI-8226 leukemia
[33] = system: HCT-116 colon
[34] = system: 786-0 renal
[35] = system: CAKI-1 renal
[36] = system: OVCAR-3 ovarian
[37] = system: SK-MEL-28 melanoma
[38] = system: TK-10 renal
[39] = system: SN12C renal
[40] = system: HT29 colon
[41] = system: OVCAR-4 ovarian
[42] = system: UO-31 renal
[43] = system: HS 578T breast
[44] = system: NCI-H522 lung
[45] = system: IGROV1 ovarian
[46] = system: SF-295 CNS
[47] = system: UACC-257 melanoma
[48] = system: UACC-62 melanoma
[49] = system: SNB-75 CNS
[50] = system: MALME-3M melanoma
[51] = system: SR leukemia
[52] = system: NCI-H23 lung
[53] = system: RXF 393 renal
[54] = system: PC-3 prostate
[55] = system: T-47D breast
[56] = system: KM12 colon
[57] = system: SW-620 colon
[58] = system: NCI-H460 lung
[59] = system: HCC-2998 colon

Measured: TGI

C=C(Br)CN=CN(C)C
not listed: [56] | [57] | [58] | [59]
> 100 µM: all other assays above

COc1c2ccoc2nc2c(OC)c(OCC(O)C(C)(C)O)ccc12 (stereo not drawn)
not listed: [14] | [51] | [53]
> 100 µM: all other assays above

O=C1[C@@H]2[C@@H](CN3CN(c4ccccc4)N=C(c4ccccc4)[C@@]23c2ccccc2)C(=O)N1c1ccccc1
27.7 µM: [13]
40.3 µM: [24]
32.6 µM: [27]
18.4 µM: [39]
13.2 µM: [20]
3.29 µM: [42]
24.7 µM: [30]
21.2 µM: [36]
1.13 µM: [44]
3.84 µM: [57]
9.65 µM: [53]
> 25.4 µM: [17]
6.22 µM: [40]
27.1 µM: [54]
3.3 µM: [9]
5.25 µM: [7]
36.6 µM: [6]
31.8 µM: [33]
23.2 µM: [11]
49.2 µM: [25]
3.83 µM: [22]
34.9 µM: [49]
10.4 µM: [3]
3.13 µM: [38]
> 65.8 µM: [43]
50.4 µM: [58]
5.56 µM: [34]
26 µM: [37]
30.2 µM: [46]
23.6 µM: [52]
> 75.5 µM: [56]
3.57 µM: [50]
4.04 µM: [8]
36.8 µM: [23]
19.7 µM: [12]
> 65.6 µM: [1]
13.9 µM: [28]
8.87 µM: [29]
> 100 µM: [21] | [59] | [51]
47.1 µM: [10]
11 µM: [18]
6.33 µM: [2]
9.73 µM: [5]
3.86 µM: [26]
2.45 µM: [35]
20.1 µM: [19] | [48]
> 23.8 µM: [41]
29.1 µM: [47]
12.4 µM: [32]
3.69 µM: [16]
16.6 µM: [4]
8.04 µM: [55]
30 µM: [14]
29.5 µM: [45]
